Results reported in the NIST ThermoML archive (doi:10.1016/j.jct.2016.02.009).

Experiment: molar heat capacity at constant pressure
Details: 101.33 kPa, Small (less than 1 g) adiabatic calorimetry

CCCCCCCCCCn1cc[n+](C)c1.O=S(=O)([N-]S(=O)(=O)C(F)(F)F)C(F)(F)F
molar heat capacity at constant pressure [J/K/mol]
Details	Crystal 2	Metastable crystal
4.82 K	3.08	–
4.98 K	–	3.38
5 K	3.41	3.41
5.15 K	3.69	–
5.32 K	–	4.05
5.49 K	4.38	–
5.67 K	–	4.81
5.85 K	5.15	–
6.03 K	–	5.65
6.28 K	6.16	–
6.46 K	–	6.76
6.8 K	7.44	–
6.97 K	–	8.15
7.32 K	8.83	–
7.49 K	–	9.71
7.85 K	10.34	–
8.02 K	–	11.34
8.39 K	11.95	–
8.55 K	–	13.1
8.92 K	13.66	–
9.09 K	–	14.97
9.47 K	15.45	–
9.62 K	–	16.9
10 K	17.29	18.31
10.01 K	17.32	–
10.16 K	–	18.93
10.63 K	19.54	–
10.78 K	–	21.32
11.31 K	22.05	–
11.46 K	–	24.01
12 K	24.68	–
12.15 K	–	26.84
12.7 K	27.41	–
12.85 K	–	29.77
13.4 K	30.22	–
13.56 K	–	32.75
14.1 K	33.14	–
14.27 K	–	35.9
14.81 K	36.15	–
14.99 K	–	39.03
15 K	36.94	39.12
15.63 K	39.64	–
15.81 K	–	42.67
16.56 K	43.69	–
16.75 K	–	46.88
17.51 K	47.81	–
17.7 K	–	51.06
18.46 K	51.81	–
18.65 K	–	55.14
19.4 K	55.79	–
19.6 K	–	59.21
20 K	58.37	61
20.36 K	59.87	–
20.85 K	–	64.6
21.61 K	65.16	–
22.41 K	–	71.3
23.17 K	71.8	–
23.98 K	–	78
24.75 K	78.35	–
25 K	79.32	82.14
25.56 K	–	84.49
26.31 K	84.64	–
27.07 K	–	90.53
27.89 K	90.84	–
28.66 K	–	96.83
29.55 K	97.23	–
30 K	98.9	102
30.24 K	–	102.9
31.4 K	104	–
31.98 K	–	109.5
33.31 K	110.8	–
33.9 K	–	116.3
35 K	116.6	120.1
35.22 K	117.3	–
35.82 K	–	123
37.13 K	123.7	–
37.74 K	–	129.4
39.05 K	129.9	–
39.66 K	–	135.6
40 K	132.9	136.7
41.06 K	136.2	–
41.68 K	–	142
43.16 K	142.8	–
43.79 K	–	148.7
45 K	–	152.5
45.27 K	149.2	–
45.9 K	–	155.3
47.38 K	155.7	–
48.02 K	–	161.8
49.5 K	161.9	–
50 K	163.2	167.6
50.15 K	–	168
51.63 K	168	–
52.27 K	–	174.1
53.75 K	173.9	–
54.4 K	–	180
55.87 K	179.6	–
56.52 K	–	185.7
57.99 K	185.1	–
58.65 K	–	191.3
60 K	190.4	194.8
60.11 K	190.6	–
60.78 K	–	196.8
62.24 K	196.1	–
62.91 K	–	202.2
64.38 K	201.3	–
65.05 K	–	207.5
66.52 K	206.5	–
67.19 K	–	212.7
68.65 K	211.6	–
69.32 K	–	217.8
70 K	214.9	219.4
70.79 K	216.6	–
71.56 K	–	223.1
73.03 K	221.9	–
73.9 K	–	228.4
75.37 K	227.2	–
76.24 K	–	233.8
77.73 K	232.5	–
78.59 K	–	239
80 K	237.4	242.1
80.09 K	237.6	–
80.53 K	238.8	–
80.94 K	–	244.2
81.02 K	–	244.3
82.24 K	242.3	–
82.44 K	242.6	–
82.84 K	–	248.2
83.3 K	–	249.2
83.96 K	245.9	–
84.55 K	–	251.8
85.68 K	249.4	–
86.26 K	–	255.5
87.42 K	253.1	–
87.99 K	–	259.2
89.16 K	256.6	–
89.72 K	–	262.8
90 K	258.5	263.4
90.91 K	260.3	–
91.45 K	–	266.4
92.66 K	263.9	–
93.2 K	–	270
94.42 K	267.5	–
94.95 K	–	273.7
96.19 K	271.1	–
96.7 K	–	277.2
97.97 K	274.7	–
98.47 K	–	280.8
99.75 K	278.1	–
100 K	278.7	283.9
100.23 K	–	284.3
101.59 K	281.8	–
102.07 K	–	288.2
103.5 K	285.5	–
103.96 K	–	292
105.42 K	289.1	–
105.87 K	–	295.9
107.35 K	292.7	–
107.77 K	–	299.7
109.27 K	296.4	–
109.69 K	–	303.6
110 K	297.7	304.1
111.21 K	299.9	–
111.6 K	–	307.4
113.14 K	303.5	–
113.52 K	–	311.1
115.09 K	307	–
115.45 K	–	314.9
117.03 K	310.5	–
117.37 K	–	318.6
118.98 K	314	–
119.3 K	–	322.3
120 K	315.8	323.7
120.92 K	317.4	–
121.23 K	–	326.1
122.88 K	320.8	–
123.16 K	–	329.9
124.83 K	324.3	–
125.09 K	–	333.6
126.79 K	327.7	–
127.03 K	–	337.4
128.75 K	331.1	–
128.97 K	–	341.2
130 K	333.3	343.2
130.71 K	334.5	–
130.9 K	–	345.1
132.67 K	337.9	–
132.84 K	–	348.9
134.64 K	341.3	–
134.78 K	–	352.7
136.6 K	344.8	–
136.72 K	–	356.6
138.57 K	348	–
138.66 K	–	360.6
140 K	350.5	363.3
140.54 K	351.4	–
140.6 K	–	364.4
142.51 K	354.8	–
